From ChEMBL document CHEMBL1201862, “PubChem BioAssay data set” (2004)
Calls of active or inactive are those of the source.

What was measured:
[1] = luciferase reporter signal suppression in cells – H4 neuroglioma cells, luminescence, dose response (AID 1990); format: functional, cell-based
[2] = Luminescence Cell-Based Dose Response HTS to Identify Inhibitors of 5'UTR Stem-Loop Driven Prion Protein mRNA Translation in H4 Neuroglioblastoma Cells. [Related pubchem assays: 1827 (Project Summary), 1813 (Primary HTS)]; format: functional
[3] = alpha-synuclein stem-loop luciferase translation blockers – H4 neuroglioma cells, luminescence, confirmation (AID 1988); format: functional, cell-based
[4] = biological target: Voltage-dependent T-type calcium channel subunit alpha-1H (Homo sapiens, UniProt O95180); format: functional;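 note: channel activity triggered by adding a high calcium stimulation buffer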
Sequence of Voltage-dependent T-type calcium channel subunit alpha-1H (O95180 whole entry): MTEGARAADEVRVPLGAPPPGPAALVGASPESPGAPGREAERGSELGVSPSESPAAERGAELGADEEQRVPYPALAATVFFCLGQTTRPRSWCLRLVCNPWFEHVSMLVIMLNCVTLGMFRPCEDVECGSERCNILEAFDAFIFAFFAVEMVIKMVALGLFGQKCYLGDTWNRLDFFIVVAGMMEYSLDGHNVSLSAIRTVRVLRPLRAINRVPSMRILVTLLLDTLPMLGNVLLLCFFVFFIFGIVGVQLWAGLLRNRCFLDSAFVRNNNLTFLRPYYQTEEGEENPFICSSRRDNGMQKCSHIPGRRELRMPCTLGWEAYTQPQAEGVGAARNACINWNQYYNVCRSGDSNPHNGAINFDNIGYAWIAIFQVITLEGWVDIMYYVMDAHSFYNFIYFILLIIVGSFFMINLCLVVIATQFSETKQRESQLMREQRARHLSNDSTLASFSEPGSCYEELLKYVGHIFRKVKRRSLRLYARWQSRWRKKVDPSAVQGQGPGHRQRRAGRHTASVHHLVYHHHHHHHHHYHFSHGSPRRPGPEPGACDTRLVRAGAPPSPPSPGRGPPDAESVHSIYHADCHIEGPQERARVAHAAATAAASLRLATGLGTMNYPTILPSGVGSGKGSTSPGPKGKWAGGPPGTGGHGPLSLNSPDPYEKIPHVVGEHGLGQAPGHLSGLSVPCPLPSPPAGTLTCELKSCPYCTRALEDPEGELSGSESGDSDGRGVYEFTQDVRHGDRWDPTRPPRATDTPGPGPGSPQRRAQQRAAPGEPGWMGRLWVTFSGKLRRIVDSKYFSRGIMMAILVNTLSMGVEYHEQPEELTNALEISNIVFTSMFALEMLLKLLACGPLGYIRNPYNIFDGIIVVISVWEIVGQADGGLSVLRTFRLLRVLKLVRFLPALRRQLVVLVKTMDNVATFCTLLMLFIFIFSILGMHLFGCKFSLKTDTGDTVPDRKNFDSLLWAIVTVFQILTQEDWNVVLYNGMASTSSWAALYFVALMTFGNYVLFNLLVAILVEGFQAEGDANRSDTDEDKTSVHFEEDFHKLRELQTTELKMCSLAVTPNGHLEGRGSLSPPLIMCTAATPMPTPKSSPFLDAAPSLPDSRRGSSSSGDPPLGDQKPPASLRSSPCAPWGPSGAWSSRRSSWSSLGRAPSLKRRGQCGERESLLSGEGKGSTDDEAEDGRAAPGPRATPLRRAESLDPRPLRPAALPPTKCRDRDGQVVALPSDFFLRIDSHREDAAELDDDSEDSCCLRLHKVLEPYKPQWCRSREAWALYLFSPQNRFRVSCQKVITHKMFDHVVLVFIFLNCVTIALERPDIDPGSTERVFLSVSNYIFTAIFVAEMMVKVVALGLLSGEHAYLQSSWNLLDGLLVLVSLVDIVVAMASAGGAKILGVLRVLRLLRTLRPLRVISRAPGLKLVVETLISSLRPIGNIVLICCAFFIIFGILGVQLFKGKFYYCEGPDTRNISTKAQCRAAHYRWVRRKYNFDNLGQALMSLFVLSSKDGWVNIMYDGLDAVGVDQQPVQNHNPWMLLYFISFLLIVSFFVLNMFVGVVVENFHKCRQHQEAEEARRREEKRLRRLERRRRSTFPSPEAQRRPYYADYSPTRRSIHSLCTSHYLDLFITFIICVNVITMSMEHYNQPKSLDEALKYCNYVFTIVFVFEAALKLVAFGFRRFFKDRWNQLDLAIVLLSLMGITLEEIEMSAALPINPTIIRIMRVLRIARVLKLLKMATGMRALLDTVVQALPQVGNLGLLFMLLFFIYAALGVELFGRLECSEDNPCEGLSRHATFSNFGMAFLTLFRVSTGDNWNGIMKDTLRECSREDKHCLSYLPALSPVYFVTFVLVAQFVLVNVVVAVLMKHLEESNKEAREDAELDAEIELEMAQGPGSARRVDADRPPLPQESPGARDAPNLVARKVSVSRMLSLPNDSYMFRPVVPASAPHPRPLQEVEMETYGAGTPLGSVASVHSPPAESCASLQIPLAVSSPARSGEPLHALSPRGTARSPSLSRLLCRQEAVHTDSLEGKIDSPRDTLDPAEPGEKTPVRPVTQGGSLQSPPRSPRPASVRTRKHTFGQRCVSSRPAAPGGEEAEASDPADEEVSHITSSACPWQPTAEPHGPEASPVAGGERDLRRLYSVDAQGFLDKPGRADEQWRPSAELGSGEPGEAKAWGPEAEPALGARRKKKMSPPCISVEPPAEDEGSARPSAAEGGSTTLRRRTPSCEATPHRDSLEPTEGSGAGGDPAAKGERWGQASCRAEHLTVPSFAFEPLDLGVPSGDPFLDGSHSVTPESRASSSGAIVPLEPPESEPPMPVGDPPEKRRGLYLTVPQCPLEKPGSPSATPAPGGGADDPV

[5] = biological target: Eukaryotic translation initiation factor 4E (Mus musculus, UniProt P63073); test: blockers of eIF4G binding by eIF4E – biochemical, TR-FRET, dose response (AID 855); format: functional;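 note: potency for disrupting eIF4E binding to eIF4GI seen as loss of FRET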
Sequence of Eukaryotic translation initiation factor 4E (P63073 whole entry): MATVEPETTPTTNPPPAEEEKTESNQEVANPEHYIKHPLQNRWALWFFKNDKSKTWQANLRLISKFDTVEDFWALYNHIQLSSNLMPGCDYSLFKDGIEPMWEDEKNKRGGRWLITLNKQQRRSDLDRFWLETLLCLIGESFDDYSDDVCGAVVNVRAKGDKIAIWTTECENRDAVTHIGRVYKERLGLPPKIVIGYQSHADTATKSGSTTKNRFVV

[6] = biological target: DNA dC->dU-editing enzyme APOBEC-3G (Homo sapiens, UniProt Q9HC16); test: Dose Response confirmation of small molecule APOBEC3G DNA Deaminase Inhibitors via a fluorescence-based single-stranded DNA deaminase assay. [Related pubchem assays (depositor defined):AID493012, AID493028]; format: functional
[7] = biological target: T1, Fatty acid synthase (Homo sapiens, UniProt P49327); test: inhibition of human FAS-TE enzyme activity – biochemical, kinetic fluorescence intensity, dose response (AID 624326); format: functional;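 note: rate of fluorescence rise from hydrolysis of a fluorogenic O-methyl fluorescein ester substrate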
T1 sequence (P49327 whole entry): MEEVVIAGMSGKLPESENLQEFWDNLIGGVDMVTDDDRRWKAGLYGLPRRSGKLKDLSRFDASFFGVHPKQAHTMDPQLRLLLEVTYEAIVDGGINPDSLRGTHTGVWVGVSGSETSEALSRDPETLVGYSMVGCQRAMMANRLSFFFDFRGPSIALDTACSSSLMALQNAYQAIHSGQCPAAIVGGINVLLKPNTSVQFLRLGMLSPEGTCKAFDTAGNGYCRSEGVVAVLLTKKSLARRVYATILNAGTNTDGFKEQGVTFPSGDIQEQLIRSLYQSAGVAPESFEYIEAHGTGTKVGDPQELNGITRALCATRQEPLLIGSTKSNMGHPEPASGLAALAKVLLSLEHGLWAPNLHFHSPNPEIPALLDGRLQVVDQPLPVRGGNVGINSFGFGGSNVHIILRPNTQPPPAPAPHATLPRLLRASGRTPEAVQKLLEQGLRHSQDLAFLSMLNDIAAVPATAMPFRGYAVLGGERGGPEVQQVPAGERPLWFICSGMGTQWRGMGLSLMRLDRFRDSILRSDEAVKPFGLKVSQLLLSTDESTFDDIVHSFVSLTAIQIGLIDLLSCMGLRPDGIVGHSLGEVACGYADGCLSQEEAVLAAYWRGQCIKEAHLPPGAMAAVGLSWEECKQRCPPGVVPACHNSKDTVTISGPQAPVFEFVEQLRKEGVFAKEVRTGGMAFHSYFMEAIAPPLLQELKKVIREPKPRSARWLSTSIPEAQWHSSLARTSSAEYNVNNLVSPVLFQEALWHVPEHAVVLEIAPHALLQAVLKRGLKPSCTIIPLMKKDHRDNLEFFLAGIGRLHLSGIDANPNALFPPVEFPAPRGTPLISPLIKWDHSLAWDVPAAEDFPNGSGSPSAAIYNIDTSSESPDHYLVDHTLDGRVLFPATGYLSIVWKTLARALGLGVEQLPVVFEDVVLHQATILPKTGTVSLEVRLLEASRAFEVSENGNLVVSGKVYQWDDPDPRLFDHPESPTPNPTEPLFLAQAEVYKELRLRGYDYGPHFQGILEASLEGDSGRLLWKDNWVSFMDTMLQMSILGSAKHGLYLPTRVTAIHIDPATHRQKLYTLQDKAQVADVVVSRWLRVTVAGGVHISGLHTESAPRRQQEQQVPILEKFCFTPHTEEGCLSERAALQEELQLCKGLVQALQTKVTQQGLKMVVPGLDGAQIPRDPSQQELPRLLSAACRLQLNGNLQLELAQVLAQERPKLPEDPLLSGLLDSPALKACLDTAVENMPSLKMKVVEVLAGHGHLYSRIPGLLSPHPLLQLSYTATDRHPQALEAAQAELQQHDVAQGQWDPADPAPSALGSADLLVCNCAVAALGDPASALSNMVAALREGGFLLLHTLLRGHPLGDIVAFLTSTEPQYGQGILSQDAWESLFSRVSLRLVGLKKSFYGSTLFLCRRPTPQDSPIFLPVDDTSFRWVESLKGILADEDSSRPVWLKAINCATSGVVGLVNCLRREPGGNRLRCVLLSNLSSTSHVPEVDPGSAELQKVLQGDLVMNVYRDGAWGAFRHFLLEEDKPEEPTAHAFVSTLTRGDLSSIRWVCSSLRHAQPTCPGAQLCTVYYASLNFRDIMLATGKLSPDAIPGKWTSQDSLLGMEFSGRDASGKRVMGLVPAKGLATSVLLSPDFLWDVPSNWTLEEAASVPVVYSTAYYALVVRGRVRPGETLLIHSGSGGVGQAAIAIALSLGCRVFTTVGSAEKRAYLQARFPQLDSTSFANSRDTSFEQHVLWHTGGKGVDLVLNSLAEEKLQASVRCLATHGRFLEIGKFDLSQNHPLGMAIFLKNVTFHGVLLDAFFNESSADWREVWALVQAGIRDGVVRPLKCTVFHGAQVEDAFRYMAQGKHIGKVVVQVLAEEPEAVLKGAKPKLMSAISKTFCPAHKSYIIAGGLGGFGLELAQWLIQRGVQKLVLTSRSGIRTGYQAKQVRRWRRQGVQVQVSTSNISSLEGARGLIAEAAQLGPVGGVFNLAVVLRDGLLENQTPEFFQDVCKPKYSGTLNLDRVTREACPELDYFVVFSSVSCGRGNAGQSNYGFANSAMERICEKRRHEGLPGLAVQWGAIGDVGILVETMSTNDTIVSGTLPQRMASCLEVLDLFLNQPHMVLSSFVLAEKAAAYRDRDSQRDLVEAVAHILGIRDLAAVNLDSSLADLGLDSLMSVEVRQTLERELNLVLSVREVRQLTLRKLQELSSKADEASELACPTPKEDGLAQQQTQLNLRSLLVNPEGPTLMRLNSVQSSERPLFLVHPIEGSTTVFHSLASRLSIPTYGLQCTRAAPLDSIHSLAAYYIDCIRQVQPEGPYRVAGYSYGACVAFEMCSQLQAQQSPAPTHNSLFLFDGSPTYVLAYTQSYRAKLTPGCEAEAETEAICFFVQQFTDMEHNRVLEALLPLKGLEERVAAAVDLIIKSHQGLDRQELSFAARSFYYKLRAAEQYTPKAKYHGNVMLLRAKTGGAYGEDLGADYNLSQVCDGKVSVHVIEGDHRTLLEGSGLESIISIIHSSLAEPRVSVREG

[8] = biological target: T1, Fatty acid synthase; test: inhibition of human FAS-TE enzyme activity – biochemical, endpoint fluorescence intensity, uHTS hits, dose response (AID 624327); format: functional;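 note: fluorescence from hydrolysis of an O-methyl fluorescein acyl ester substrate by the enzyme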
[9] = system: SN12K1; test: cells; format: functional; settings: Homo sapiens
[10] = system: P388; test: cells; format: functional; settings: Mus musculus
[11] = system: P388/ADR; test: cells; format: functional; settings: Mus musculus
[12] = biological target: T2, Adenosylmethionine-8-amino-7-oxononanoate aminotransferase (Mycobacterium tuberculosis, UniProt P9WQ81); test: Mycobacterium tuberculosis BioA enzyme inhibitor Measured in Biochemical System Using Plate Reader - 2163-02_Inhibitor_Dose_CherryPick_Activity.; format: functional, Mycobacterium tuberculosis UT205
T2 sequence (P9WQ81 whole entry): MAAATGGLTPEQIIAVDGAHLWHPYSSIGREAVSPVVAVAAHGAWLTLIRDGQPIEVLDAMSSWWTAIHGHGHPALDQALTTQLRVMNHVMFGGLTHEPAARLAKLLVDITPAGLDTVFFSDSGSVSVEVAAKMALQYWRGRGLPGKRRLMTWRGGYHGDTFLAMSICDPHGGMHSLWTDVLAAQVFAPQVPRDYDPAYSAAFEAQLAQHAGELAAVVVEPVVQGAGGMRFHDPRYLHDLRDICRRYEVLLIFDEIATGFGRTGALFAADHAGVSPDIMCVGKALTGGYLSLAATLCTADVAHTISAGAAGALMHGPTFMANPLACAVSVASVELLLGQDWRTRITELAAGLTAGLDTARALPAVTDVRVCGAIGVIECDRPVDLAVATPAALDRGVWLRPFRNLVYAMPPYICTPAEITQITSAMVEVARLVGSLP

[13] = biological target: T3, Long-chain-fatty-acid--AMP ligase FadD28 (Mycobacterium tuberculosis, UniProt P9WQ59); test: Fluorescence polarization aasay to screen for inhibitors that compete for the binding of FadD28 to a bisubstrate Measured in Biochemical System Using Plate Reader - 2147-01_Inhibitor_Dose_CherryPick_Activity.; format: functional, Mycobacterium tuberculosis H37Rv
T3 sequence (P9WQ59 whole entry): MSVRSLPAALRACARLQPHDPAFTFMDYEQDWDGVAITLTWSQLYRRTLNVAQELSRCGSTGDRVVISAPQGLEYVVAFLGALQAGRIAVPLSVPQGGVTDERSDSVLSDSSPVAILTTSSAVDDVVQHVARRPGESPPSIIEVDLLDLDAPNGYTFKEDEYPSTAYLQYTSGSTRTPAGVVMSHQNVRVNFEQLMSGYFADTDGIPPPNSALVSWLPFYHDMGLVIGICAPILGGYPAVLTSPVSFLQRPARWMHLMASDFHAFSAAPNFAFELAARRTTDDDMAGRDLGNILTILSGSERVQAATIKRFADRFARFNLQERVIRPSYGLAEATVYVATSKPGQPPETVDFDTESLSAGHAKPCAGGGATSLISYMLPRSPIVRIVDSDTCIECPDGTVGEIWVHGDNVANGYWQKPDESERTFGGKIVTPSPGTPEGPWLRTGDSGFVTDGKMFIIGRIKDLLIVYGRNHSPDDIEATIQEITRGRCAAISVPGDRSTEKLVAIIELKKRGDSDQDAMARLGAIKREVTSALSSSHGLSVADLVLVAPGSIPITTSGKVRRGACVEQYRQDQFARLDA

[14] = biological target: T4, Zinc finger protein mex-5 (Caenorhabditis elegans, UniProt Q9XUB2); test: potency of MEX-5 RNA-binding blockers – biochemical, C. elegans, fluorescence polarization, dose response (AID 1960)
T4 sequence (Q9XUB2 whole entry): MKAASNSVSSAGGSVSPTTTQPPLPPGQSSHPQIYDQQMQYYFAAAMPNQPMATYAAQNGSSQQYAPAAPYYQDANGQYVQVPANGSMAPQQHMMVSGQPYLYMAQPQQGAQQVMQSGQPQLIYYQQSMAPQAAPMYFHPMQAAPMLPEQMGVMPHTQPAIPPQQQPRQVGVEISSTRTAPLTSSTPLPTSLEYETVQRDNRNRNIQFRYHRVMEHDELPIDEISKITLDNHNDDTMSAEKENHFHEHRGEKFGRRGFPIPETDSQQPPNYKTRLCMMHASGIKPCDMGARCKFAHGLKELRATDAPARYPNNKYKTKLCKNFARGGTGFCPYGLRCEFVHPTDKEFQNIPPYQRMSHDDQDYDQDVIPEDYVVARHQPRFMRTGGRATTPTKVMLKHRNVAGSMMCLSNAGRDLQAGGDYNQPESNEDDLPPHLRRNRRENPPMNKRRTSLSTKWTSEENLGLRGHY

[15] = biological target: T5, RNA-binding protein pos-1 (Caenorhabditis elegans, UniProt G5EF15); test: disruptors of C. elegans POS-1 RNA interaction – biochemical, fluorescence polarization, dose response (AID 1964);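 note: purified POS-1 fused to maltose binding protein made in E. coli; potency of compounds blocking POS-1 binding to fluorescent RNA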
T5 sequence (G5EF15 whole entry): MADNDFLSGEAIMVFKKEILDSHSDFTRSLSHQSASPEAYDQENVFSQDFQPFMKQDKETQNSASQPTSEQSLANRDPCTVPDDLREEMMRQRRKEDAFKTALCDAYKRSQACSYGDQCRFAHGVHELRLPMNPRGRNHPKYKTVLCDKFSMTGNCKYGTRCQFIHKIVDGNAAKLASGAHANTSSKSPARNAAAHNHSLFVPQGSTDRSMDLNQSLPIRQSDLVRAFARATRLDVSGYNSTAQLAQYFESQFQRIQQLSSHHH

[16] = blockers of HIV-1 ZM109 envelope-driven cell-cell fusion – HeLa effector, CEM target cells, luciferase, cherry-pick, dose response (AID 652058); format: functional, cell-based;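 note: luciferase signal from HIV-1 Env mediated cell-cell fusion of effector and target cells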
[17] = HIV-1 AD8 envelope cell-cell fusion blockers – cherry-pick, dose response (AID 652062); format: functional, cell-based;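 note: luciferase signal from cell-cell fusion driven by HIV-1 clade B AD8 Env; potency is for inhibitors of fusion seen as a drop in luminescence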
[18] = blockers of HIV-1 envelope-mediated cell-cell fusion – cherry-pick, dose response (AID 652057); format: functional, cell-based
[19] = system: H4; test: Luminescence Cell-Based Dose Response HTS to Identify Activators of 5'UTR Stem-Loop Driven Prion Protein mRNA Translation in H4 Neuroglioblastoma Cells. [Related pubchem assays: 1829 (Project Summary), 1814 (Primary HTS)]; format: functional; settings: Homo sapiens
[20] = Luminescence Cell-Based Dose Confirmation HTS to Identify Activators of 5'UTR Stem-Loop Driven Alpha-Synuclein mRNA Translation in H4 Neuroglioblastoma Cells. [Related pubchem assays: 1829 (Project Summary), 1814 (Primary HTS)]; format: functional
[21] = Luminescence Cell-Based Dose Response HTS to Identify Activators of Luciferase Translation or Activity in H4 […] Cells. [Related pubchem assays: 1829 (Project Summary), 1814 (Primary HTS)]; format: functional

For `CCOC(=O)c1c(C)[nH]c(C)c1C(=O)Cn1nnc(-c2ccccc2C)n1`, the EC50 [1] was > 60 µM (not active), the EC50 [2] was 18.3 µM (active) and the EC50 [3] was > 120 µM (not active). The EC50 [4] was 5.31 µM (active).
For `CCS(=O)(=O)c1ccc2oc(Nc3ccc(C(C)C)cc3)nc2c1`, the IC50 [5] was > 64 µM (inactive), the IC50 [6] was 20.7 µM (active) and the IC50 [7] was 12.6 µM (active). The IC50 [8] was 22.3 µM (inactive).
For `O=C1CCC23CC(C=CC=C12)n1c(=O)n(-c2ccccc2)c(=O)n13` (stereo not given), the GI50 [9] was > 100 µM (inactive), the GI50 [10] was 49.9 µM (inactive) and the GI50 [11] was 31 µM (inactive).
With `O=C(CCSc1nc(-c2ccco2)cc(C(F)(F)F)n1)N1CCN(c2ccccn2)CC1` the EC50 [4] was 6.47 µM (active).
For `CNC(=O)ON(C(C)=O)C(=O)NC` [CARACEMIDE], the GI50 [9] was 50.9 µM (inactive), the GI50 [10] was 16.4 µM (inactive) and the GI50 [11] was 21.4 µM (inactive).
In the case of `Nn1c(SC/C=C/c2ccccc2)nnc1-c1cccnc1`, the AC50 [12] is reported as 0.311 µM (active).
For `CCc1nnc(NC(=O)CC(CN(C)S(=O)(=O)c2ccccc2)c2ccccc2)s1` (stereo not given), the EC50 [4] was 2.4 µM (active).
In the case of `COc1ccc(/C=C/C(=O)N(C)Cc2cccs2)cc1S(=O)(=O)N1CCOCC1`, the AC50 [13] is reported as 42.6 µM (active).
For `CCc1c(C(=O)NNC(=S)Nc2ccc(S(=O)(=O)Nc3ncccn3)cc2)csc1C`, the EC50 [14] was 12.5 µM (active), the EC50 [15] was > 300 µM (not active) and the AC50 [13] was 89.7 µM (active).
With `COc1ccc(NC(=O)Nc2ccc3c(c2)C(=O)N([C@@H](C)CO)C[C@H](C)[C@H](CN(C)Cc2ccncc2)OCCCC[C@H](C)O3)cc1` the AC50 [16] was 0.412 µM (active), the AC50 [17] was 12.7 µM (active) and the AC50 [18] was 0.541 µM (active).
For `COc1cc2c(c(OC)c1OC)C(=O)NCCC2`, the GI50 [9] was > 100 µM (inactive), the GI50 [10] was > 100 µM (inactive) and the GI50 [11] was > 100 µM (inactive).
For `O=C(NC(=S)NC1CCCCCC1)c1cncc(Br)c1`, the EC50 [19] was 7.48 µM (active), the EC50 [20] was 39.6 µM (active) and the EC50 [21] was 76.3 µM (active).
